Test results taken from patent publication US10508130B2, “Crystalline polymorph of 15B-hydroxy-osaterone acetate” (ASKA Pharmaceutical Co., Ltd., priority 2016, dated 2019).

How the values were obtained:
[1] = Pharmacokinetics in dog (oral capsule, plasma LC-MS/MS); assay type: in vivo; conditions: female dogs, 0.3 mg/kg oral, gelatin capsule with lactose hydrate, plasma 15β-hydroxy-osaterone acetate
Description: For each sample of the crystalline polymorphic form A obtained in Example 1 and the crystalline polymorphic form B obtained in Comparative Example 1, the sample was mixed at a dose of 0.3 mg/kg with 100 mg of lactose hydrate (manufactured by DFE Pharma), and the mixture was filled with a gelatin capsule (manufactured by Matsuya Corporation, MM, size: No. 2) to prepare a capsule preparation. The capsule preparation containing the crystalline polymorphic form A was orally administered to a first female dog group (5 dogs), and the capsule preparation containing the crystalline polymorphic form B was orally administered to a second female dog group (5 dogs). The blood was sampled from each dog 0.5, 1, 2, 3, 4, 5, 7, 10, 24, 48, and 72 hours after oral administration, and the blood plasma from each sample was obtained by centrifugation. The concentration of 15β-hydroxy-osaterone acetate in each blood plasma was measured by an LC-MS/MS (liquid chromatography-tandem mass spectrometry) method, and a time to reach a maximum plasma concentration (Tmax) and a maximum plasma concentration (Cmax) were calculated.

[2] = Angle of repose (powder flow property); assay type: physicochemical; conditions: for Angle of repose (°) Average: average of three measurements; for Degree of flow property: evaluated based on Japanese Pharmacopoeia, General Information (Powder Flow); for Angle of repose (°) First time: first measurement; for Angle of repose (°) Second time: second measurement; for Angle of repose (°) Third time: third measurement
Description: Probably due to being the prism crystal, the crystalline polymorphic form A of 15β-hydroxy-osaterone acetate is characterized by a high powder flow property and a small angle of repose. For example, the powdery crystalline polymorphic form A of 15β-hydroxy-osaterone acetate has an average angle of repose of, for example, about 30 to 38°, preferably about 32 to 37° (e.g., about 33 to 37°), and more preferably about 34 to 36°, when the angle of repose is measured three times in accordance with methods for angle of repose described in The Japanese Pharmacopoeia. Incidentally, the crystalline polymorphic form B of 15β-hydroxy-osaterone acetate has an average angle of repose of, for example, about 42 to 52° (e.g., about 44 to 50°, particularly about 45 to 47°) by the same measurement as above. The angle of repose can be evaluated as the following manner. A funnel (a glass funnel having a funnel diameter of 50 mm, a stem internal diameter of 7 mm, and a stem length of 40 mm) is provided, the height from the lower end of the funnel to a base surface (an upper surface of a cylinder having a diameter of 1.5 cm) is fixed to 4.5 cm, an excess amount of a powdery sample is dropped onto the center of the cylinder surface (the base surface) through the funnel, and an incident angle of the resulting accumulated powder is measured.
The height from a lower end of a funnel to a base surface (an upper surface of a cylinder having a diameter of 1.5 cm) was fixed to 4.5 cm, an excess amount of a powdery sample was dropped onto the center of the cylinder surface (the base surface) through the funnel. An incident angle (an angle of repose) of the resulting accumulated powder was measured. This operation was repeated three times, and the average value of the angle of repose was calculated.
In Table 1, the degree of flow property is evaluated based on Japanese Pharmacopoeia, General Information (G2 Solid-state Properties, Powder Flow), which is described about the relationship between the angle of repose and the flow property.

[3] = Stability (stir-suspension) in mixed solvents; assay type: physicochemical; conditions: for stability of crystal form to the solvents commonly used in production of preparations: acetone/heptane, acetone/water, ethanol/water mixed solvents; for proportion maintaining crystal structure: stirred
Description: To (1) an acetone/heptane mixed solvent (1:1), (2) an acetone/water mixed solvent (1:1), or (3) an ethanol/water mixed solvent (1:1) was added the crystalline polymorphic form A, and the mixture was stirred. One day after, the crystalline polymorphic form A maintained a crystal structure thereof at a proportion of 98% in the mixed solvent (1), 99% in the mixed solvent (2), and 100% in the mixed solvent (3). Three days after, the crystalline polymorphic form A maintained a crystal structure thereof at a proportion of 95% in the mixed solvent (1), 98% in the mixed solvent (2), and 99% in the mixed solvent (3). Even seven days after, the crystalline polymorphic form A maintained a crystal structure thereof at a proportion of 95% in the mixed solvent (1), 98% in the mixed solvent (2), and 99% in the mixed solvent (3).

[4] = Friction or pulverization stability (automatic mortar grinder, PXRD); assay type: physicochemical; conditions: 50 mg pulverized one hour, pestle 124 g, 50 rpm; PXRD peak height ratio
Description: In an automatic mortar grinder (weight of pestle: 124 g, 50 rpm), 50 mg of a sample (the crystalline polymorphic form A or the crystalline polymorphic form B) was put, the sample was pulverized over one hour and sampled. A PXRD analysis of the sample was conducted to determine the change of a degree of crystallization. The degree of crystallization after one hour of the crystalline polymorphic form A was 46.8%, and that of the crystalline polymorphic form B was 22.2%. Thus, the crystalline polymorphic form A was stable to pulverization. Incidentally, the degree of crystallization was determined based on an intensity ratio (peak height) of a characteristic diffraction peak in the PXRD spectrum (for the crystalline polymorphic form A, a diffraction peak at 2θ=17.1°; for the crystalline polymorphic form B, a diffraction peak at 2θ=16.2°), and the change rate of crystallization degree was calculated.

[5] = Thermal stability test (storage at 100° C., purity by HPLC); assay type: physicochemical; conditions: in air; for colour of crystal with the passage of time / colour of crystal on the seventh day after storage: 100° C.; for colour of crystal with the passage of time: after seventh day up to 28 days
Description: The crystalline polymorphic form A obtained in Example 1 and the crystalline polymorphic form B obtained in Comparative Example 1 were each stored at a temperature of 100° C. for 28 days (storage condition: in a thermostatic bath, in air). During the storage, the crystals were sampled every predetermined time, and the purity of 15β-hydroxy-osaterone acetate in each sample was measured by HPLC.

Row | SMILES | Tmax (time to reach a maximum plasma concentration) [1] [h] | Angle of repose (°) Average [2] [°] | Degree of flow property [2] | Angle of repose (°) First time [2] [°] | Angle of repose (°) Second time [2] [°] | Angle of repose (°) Third time [2] [°] | stability of crystal form to the solvents commonly used in production of preparations [3] | degree of crystallization after one hour [4] [%] | colour of crystal with the passage of time [5] | colour of crystal on the seventh day after storage [5] | also measured
1 | CC(=O)O[C@]1(C(C)=O)C[C@@H](O)[C@H]2[C@@H]3C=C(Cl)C4=CC(=O)OC[C@]4(C)[C@H]3CC[C@@]21C [Crystalline polymorphic form B, 17α-acetoxy-6-chloro-15β-hydroxy-2-oxapregna-4,6-diene-3,20-dione, reference compound] | 5.8 ± 1.60 | 46 | Poor | 51 | 39 | 48 | unstable | 22.2 | turned brown | light brown | Cmax ([1]; female, dog, plasma, po, 0.3 mg/kg, read-out: Cmax (maximum plasma concentration)): 128 ± 19.2 ng/mL
2 | CC(=O)O[C@]1(C(C)=O)C[C@@H](O)[C@H]2[C@@H]3C=C(Cl)C4=CC(=O)OC[C@]4(C)[C@H]3CC[C@@]21C [Crystalline polymorphic form A, 17α-acetoxy-6-chloro-15β-hydroxy-2-oxapregna-4,6-diene-3,20-dione] | 13.8 ± 8.33 | 35 | Good | 36 | 33 | 38 | highly stable | 46.8 | maintained light brown | light brown | Cmax (maximum plasma concentration) [1]: 84.2 ± 29.06 ng/mL; proportion maintaining crystal structure ([3]; acetone/heptane mixed solvent (1:1), one day after): 98%; proportion maintaining crystal structure ([3]; acetone/heptane mixed solvent (1:1), seven days after): 95%; proportion maintaining crystal structure ([3]; acetone/heptane mixed solvent (1:1), three days after): 95%; proportion maintaining crystal structure ([3]; acetone/water mixed solvent (1:1), one day after): 99%; proportion maintaining crystal structure ([3]; acetone/water mixed solvent (1:1), seven days after): 98%; proportion maintaining crystal structure ([3]; acetone/water mixed solvent (1:1), three days after): 98%; proportion maintaining crystal structure ([3]; ethanol/water mixed solvent (1:1), one day after): 100%; proportion maintaining crystal structure ([3]; ethanol/water mixed solvent (1:1), seven days after): 99%; proportion maintaining crystal structure ([3]; ethanol/water mixed solvent (1:1), three days after): 99%; thermal stability (active ingredient content / purity of 15β-hydroxy-osaterone acetate by HPLC) ([5]; stored at 100° C. for 28 days, thermostatic bath, FIG. 5): only a few decreases in active ingredient content
